Reference: paper PMC3399817 (PLoS ONE, 2012)

Tests used:
Test in all cases: KINOMEscan
Format in all cases: binding
PIK3CB = target: T1, PIK3CB (Homo sapiens, UniProt P42338); conditions: 1 uM
T1 construct: purchased Ambit KINOMEscan (DiscoverX)
How it was run: (§1)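 Panel profiling at one dose (1 μM) identifies kinases prevented from binding substrate by the test molecule.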

EPHB2 = target: T2, EPHB2 (Homo sapiens, UniProt P29323); conditions: EPHB2, 1 uM
T2 construct: purchased Ambit KINOMEscan (DiscoverX)
How it was run: as §1

STK33 = target: T3, STK33 (Homo sapiens, UniProt Q9BYT3); conditions: STK33, 1 uM
T3 construct: purchased Ambit KINOMEscan (DiscoverX)
How it was run: as §1

PKN1 = target: T4, PKN1 (Homo sapiens, UniProt Q16512); conditions: PKN1, 1 uM
T4 construct: purchased Ambit KINOMEscan (DiscoverX)
How it was run: as §1

CAMK1G = target: T5, CAMK1G (Homo sapiens, UniProt Q96NX5); conditions: 1 uM
T5 construct: purchased Ambit KINOMEscan (DiscoverX)
How it was run: as §1

MST3 = target: T6, MST3 (Homo sapiens, UniProt Q9Y6E0); conditions: MST3, 1 uM
T6 construct: purchased Ambit KINOMEscan (DiscoverX)
How it was run: as §1

NEK1 = target: T7, NEK1 (Homo sapiens, UniProt Q96PY6); conditions: for % binding compared to no inhibitor control: NEK1, 1 uM
T7 construct: purchased Ambit KINOMEscan (DiscoverX)
T7 sequence (Q96PY6 1-1258): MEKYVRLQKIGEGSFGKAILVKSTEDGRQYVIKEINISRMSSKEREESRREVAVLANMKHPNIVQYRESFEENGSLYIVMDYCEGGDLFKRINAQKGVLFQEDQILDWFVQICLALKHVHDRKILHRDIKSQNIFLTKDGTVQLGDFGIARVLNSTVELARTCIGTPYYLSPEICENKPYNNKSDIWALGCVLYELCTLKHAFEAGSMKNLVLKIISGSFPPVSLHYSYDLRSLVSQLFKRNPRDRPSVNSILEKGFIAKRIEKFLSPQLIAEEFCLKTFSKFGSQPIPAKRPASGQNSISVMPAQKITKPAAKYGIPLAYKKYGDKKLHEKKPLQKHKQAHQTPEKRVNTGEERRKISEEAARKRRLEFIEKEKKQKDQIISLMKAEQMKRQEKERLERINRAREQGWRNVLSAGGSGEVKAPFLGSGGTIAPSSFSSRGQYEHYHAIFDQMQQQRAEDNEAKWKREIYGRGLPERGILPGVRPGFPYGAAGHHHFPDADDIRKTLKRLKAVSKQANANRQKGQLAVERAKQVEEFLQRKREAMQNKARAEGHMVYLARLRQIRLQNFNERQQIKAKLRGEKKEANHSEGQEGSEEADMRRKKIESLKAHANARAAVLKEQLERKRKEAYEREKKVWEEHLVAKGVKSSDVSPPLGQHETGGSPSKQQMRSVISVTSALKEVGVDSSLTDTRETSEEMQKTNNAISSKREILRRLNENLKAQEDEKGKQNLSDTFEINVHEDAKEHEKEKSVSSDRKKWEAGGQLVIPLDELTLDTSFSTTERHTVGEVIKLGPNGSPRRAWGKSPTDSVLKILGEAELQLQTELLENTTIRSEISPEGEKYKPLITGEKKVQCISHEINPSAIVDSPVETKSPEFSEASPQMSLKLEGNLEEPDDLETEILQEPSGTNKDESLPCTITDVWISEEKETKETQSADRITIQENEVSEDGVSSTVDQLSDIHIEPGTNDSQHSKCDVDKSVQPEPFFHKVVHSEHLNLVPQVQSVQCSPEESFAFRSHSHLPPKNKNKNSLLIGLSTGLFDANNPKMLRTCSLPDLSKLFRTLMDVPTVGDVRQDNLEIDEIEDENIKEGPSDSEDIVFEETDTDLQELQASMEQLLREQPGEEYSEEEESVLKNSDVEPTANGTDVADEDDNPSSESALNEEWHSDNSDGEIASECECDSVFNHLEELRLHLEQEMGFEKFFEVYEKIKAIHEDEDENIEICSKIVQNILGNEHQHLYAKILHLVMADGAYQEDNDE
How it was run: as §1

YANK2 = target: T8, YANK2 (Homo sapiens, UniProt Q9NY57); conditions: YANK2, 1 uM
T8 construct: purchased Ambit KINOMEscan (DiscoverX)
How it was run: as §1

CAMK1D = target: T9, CAMK1D (Homo sapiens, UniProt Q8IU85); conditions: 1 uM
T9 construct: purchased Ambit KINOMEscan (DiscoverX)
How it was run: as §1

FGFR3 = target: T10, FGFR3 (Homo sapiens, UniProt P22607); conditions: FGFR3, 1 uM
T10 construct: purchased Ambit KINOMEscan (DiscoverX)
How it was run: as §1

ERK5 = target: T11, ERK5 (Homo sapiens, UniProt Q13164); conditions: ERK5, 1 uM
T11 construct: purchased Ambit KINOMEscan (DiscoverX)
How it was run: as §1

MARK2 = target: T12, MARK2 (Homo sapiens, UniProt Q7KZI7); conditions: MARK2, 1 uM
T12 construct: purchased Ambit KINOMEscan (DiscoverX)
How it was run: as §1

MEK2 = target: T13, MEK2 (Homo sapiens, UniProt P36507); conditions: MEK2, 1 uM
T13 construct: purchased Ambit KINOMEscan (DiscoverX)
How it was run: as §1

PIM3 = target: T14, PIM3 (Homo sapiens, UniProt Q86V86); conditions: PIM3, 1 uM
T14 construct: purchased Ambit KINOMEscan (DiscoverX)
How it was run: as §1

KIT(V559D,T670I) = target: T15, KIT(V559D,T670I) (Homo sapiens, UniProt P10721, T670I/V559D); conditions: 1 uM
T15 construct: purchased Ambit KINOMEscan (DiscoverX)
How it was run: as §1

[1] = target: T16, ABL1(Q252H)-nonphosphorylated (Homo sapiens, UniProt P00519, Q252H); conditions: 1 uM
T16 construct: purchased Ambit KINOMEscan (DiscoverX)
How it was run: as §1

[2] = target: T17, RPS6KA6(Kin.Dom.2-C-terminal) (Homo sapiens, UniProt Q9UK32); conditions: 1 uM
T17 construct: RPS6KA6(Kin.Dom.2-C-terminal); purchased Ambit KINOMEscan (DiscoverX)
How it was run: as §1

MAP3K15 = target: T18, MAP3K15 (Homo sapiens, UniProt Q6ZN16); conditions: MAP3K15, 1 uM
T18 construct: purchased Ambit KINOMEscan (DiscoverX)
How it was run: as §1

KIT(L576P) = target: T19, KIT(L576P) (Homo sapiens, UniProt P10721, L576P); conditions: 1 uM
T19 construct: purchased Ambit KINOMEscan (DiscoverX)
How it was run: as §1

ERK2 = target: T20, ERK2 (Homo sapiens, UniProt P28482); conditions: ERK2, 1 uM
T20 construct: purchased Ambit KINOMEscan (DiscoverX)
How it was run: as §1

JNK1 = target: T21, JNK1 (Homo sapiens, UniProt P45983); conditions: JNK1, 1 uM
T21 construct: purchased Ambit KINOMEscan (DiscoverX)
How it was run: as §1

ABL2 = target: T22, ABL2 (Homo sapiens, UniProt P42684); conditions: ABL2, 1 uM
T22 construct: purchased Ambit KINOMEscan (DiscoverX)
How it was run: as §1

ZAP70 = target: T23, ZAP70 (Homo sapiens, UniProt P43403); conditions: ZAP70, 1 uM
T23 construct: purchased Ambit KINOMEscan (DiscoverX)
How it was run: as §1

T6 sequence (Q9Y6E0 whole entry): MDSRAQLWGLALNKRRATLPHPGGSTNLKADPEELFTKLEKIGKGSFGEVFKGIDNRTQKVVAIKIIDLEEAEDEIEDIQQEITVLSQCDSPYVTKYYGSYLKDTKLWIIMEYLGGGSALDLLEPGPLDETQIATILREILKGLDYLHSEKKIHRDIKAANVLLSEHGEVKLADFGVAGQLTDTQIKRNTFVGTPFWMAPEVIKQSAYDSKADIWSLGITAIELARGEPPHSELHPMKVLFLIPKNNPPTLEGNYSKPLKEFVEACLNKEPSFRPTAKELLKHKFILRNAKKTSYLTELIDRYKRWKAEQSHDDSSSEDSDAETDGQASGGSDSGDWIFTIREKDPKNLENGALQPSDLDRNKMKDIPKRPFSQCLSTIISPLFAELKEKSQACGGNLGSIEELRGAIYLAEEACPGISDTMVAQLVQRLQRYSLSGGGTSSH
T23 sequence (P43403 whole entry): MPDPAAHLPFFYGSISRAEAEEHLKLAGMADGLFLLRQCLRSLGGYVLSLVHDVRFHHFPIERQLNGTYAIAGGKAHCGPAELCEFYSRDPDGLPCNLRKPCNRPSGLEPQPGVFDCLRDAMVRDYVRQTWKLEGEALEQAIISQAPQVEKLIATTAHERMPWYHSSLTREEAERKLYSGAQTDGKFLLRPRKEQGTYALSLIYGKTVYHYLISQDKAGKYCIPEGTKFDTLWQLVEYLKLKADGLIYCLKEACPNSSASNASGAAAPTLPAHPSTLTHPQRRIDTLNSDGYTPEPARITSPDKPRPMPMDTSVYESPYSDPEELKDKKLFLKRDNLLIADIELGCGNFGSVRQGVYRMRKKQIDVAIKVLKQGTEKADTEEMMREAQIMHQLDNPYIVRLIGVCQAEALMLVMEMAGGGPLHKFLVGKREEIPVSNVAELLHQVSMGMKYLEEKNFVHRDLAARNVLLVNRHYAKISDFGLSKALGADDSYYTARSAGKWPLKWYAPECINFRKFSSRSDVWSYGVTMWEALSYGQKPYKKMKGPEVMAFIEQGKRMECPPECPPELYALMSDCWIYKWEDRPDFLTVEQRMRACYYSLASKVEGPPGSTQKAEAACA
T8 sequence (Q9NY57 whole entry): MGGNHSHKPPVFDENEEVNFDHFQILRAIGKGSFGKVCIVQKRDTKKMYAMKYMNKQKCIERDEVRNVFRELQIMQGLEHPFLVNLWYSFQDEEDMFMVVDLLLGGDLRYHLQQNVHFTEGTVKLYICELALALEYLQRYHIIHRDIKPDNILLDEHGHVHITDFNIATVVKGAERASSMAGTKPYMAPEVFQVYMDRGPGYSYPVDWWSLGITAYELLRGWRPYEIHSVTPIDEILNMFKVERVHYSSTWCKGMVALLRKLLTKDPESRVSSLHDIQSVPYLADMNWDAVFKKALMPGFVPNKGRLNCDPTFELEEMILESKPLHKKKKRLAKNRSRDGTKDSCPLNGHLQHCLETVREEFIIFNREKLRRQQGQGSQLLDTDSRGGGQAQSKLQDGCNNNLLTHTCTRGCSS
T4 sequence (Q16512 whole entry): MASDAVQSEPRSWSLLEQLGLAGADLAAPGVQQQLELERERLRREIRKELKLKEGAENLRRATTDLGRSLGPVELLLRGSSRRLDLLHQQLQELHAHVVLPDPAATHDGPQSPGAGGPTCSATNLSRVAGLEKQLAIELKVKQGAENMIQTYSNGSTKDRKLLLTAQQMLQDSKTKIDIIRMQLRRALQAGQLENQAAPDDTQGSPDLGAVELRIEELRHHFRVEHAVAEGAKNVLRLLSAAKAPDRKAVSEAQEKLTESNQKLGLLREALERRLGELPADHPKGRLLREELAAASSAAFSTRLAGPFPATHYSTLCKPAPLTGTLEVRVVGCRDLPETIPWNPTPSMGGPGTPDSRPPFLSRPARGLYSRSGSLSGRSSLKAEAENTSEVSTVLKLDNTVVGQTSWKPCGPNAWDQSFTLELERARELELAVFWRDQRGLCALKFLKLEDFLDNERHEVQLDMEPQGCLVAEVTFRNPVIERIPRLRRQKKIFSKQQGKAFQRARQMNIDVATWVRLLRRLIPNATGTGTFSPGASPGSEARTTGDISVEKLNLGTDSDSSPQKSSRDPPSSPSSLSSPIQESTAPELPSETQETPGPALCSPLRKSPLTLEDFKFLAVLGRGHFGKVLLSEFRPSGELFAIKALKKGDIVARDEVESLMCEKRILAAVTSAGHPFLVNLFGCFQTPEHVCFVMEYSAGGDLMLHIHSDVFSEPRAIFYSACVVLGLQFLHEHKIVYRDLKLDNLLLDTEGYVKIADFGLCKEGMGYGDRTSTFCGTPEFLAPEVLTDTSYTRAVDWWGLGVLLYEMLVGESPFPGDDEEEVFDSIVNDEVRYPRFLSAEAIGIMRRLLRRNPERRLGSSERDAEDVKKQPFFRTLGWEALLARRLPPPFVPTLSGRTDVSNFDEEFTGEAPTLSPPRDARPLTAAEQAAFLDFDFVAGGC
T17 sequence (Q9UK32 401-745 limits assumed): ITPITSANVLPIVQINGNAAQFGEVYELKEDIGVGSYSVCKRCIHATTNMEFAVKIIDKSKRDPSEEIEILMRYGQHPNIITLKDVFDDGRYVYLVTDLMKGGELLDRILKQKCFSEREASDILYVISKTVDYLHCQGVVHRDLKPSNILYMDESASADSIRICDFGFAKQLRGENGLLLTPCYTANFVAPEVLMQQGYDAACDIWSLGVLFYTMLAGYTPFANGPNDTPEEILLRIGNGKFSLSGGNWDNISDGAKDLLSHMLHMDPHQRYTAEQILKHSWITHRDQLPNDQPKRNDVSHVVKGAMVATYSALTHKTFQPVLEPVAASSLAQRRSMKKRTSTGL
T13 sequence (P36507 whole entry): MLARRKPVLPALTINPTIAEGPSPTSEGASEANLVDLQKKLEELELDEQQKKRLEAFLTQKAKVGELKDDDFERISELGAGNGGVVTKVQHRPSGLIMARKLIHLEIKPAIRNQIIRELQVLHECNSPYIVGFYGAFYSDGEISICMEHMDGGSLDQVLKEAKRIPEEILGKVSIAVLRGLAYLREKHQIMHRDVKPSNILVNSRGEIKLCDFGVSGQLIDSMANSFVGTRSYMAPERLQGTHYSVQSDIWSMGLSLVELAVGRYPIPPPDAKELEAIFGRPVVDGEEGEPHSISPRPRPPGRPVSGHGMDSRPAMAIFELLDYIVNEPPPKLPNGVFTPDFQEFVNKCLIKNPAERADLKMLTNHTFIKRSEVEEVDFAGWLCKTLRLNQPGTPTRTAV
T21 sequence (P45983 whole entry): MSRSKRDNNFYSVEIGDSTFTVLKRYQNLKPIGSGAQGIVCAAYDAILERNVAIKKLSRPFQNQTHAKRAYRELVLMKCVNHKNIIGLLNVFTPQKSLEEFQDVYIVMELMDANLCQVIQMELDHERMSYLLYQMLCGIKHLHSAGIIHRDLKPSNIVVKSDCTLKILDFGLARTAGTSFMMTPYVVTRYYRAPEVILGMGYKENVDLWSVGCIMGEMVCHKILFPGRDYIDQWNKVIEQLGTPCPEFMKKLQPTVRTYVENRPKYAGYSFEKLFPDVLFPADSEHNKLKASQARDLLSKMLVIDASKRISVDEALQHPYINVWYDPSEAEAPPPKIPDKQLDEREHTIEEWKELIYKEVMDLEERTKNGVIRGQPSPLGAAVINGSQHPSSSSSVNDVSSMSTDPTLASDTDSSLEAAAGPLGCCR
T2 sequence (P29323 19-1055): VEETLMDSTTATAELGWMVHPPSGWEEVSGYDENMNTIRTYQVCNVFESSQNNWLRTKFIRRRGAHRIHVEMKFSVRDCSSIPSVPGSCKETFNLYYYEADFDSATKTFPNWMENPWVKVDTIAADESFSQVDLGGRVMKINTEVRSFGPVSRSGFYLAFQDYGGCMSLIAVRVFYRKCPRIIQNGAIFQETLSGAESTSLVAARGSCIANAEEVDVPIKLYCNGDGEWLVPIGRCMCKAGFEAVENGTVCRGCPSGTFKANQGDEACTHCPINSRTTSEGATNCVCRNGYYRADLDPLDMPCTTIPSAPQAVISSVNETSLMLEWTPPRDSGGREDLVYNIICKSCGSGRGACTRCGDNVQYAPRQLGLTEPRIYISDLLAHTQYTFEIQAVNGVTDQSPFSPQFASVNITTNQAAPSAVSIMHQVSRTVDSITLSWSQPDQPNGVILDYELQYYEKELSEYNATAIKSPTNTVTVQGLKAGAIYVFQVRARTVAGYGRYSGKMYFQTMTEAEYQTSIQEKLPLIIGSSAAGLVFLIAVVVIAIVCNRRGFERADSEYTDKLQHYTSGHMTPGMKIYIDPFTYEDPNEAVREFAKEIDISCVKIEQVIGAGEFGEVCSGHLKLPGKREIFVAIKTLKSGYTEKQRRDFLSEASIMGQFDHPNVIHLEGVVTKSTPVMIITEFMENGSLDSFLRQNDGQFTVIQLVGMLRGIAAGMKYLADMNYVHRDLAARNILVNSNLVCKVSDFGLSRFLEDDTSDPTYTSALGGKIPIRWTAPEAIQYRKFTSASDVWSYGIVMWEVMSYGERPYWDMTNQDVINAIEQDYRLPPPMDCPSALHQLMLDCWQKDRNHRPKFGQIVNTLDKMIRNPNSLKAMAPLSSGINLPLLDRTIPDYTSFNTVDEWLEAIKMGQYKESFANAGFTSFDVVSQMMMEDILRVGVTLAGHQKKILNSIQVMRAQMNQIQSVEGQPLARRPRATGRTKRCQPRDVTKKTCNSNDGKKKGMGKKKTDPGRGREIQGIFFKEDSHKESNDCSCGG

Row | Structure (SMILES) | % binding compared to no inhibitor control (PIK3CB) [%] | % binding compared to no inhibitor control (EPHB2) [%] | % binding compared to no inhibitor control (STK33) [%] | % binding compared to no inhibitor control (PKN1) [%] | % binding compared to no inhibitor control (CAMK1G) [%] | % binding compared to no inhibitor control (MST3) [%] | % binding compared to no inhibitor control (NEK1) [%] | % binding compared to no inhibitor control (YANK2) [%] | % binding compared to no inhibitor control (CAMK1D) [%] | % binding compared to no inhibitor control (FGFR3) [%] | % binding compared to no inhibitor control (ERK5) [%] | % binding compared to no inhibitor control (MARK2) [%] | % binding compared to no inhibitor control (MEK2) [%] | % binding compared to no inhibitor control (PIM3) [%] | % binding compared to no inhibitor control (KIT(V559D,T670I)) [%] | % binding compared to no inhibitor control [1] [%] | % binding compared to no inhibitor control [2] [%] | % binding compared to no inhibitor control (MAP3K15) [%] | % binding compared to no inhibitor control (KIT(L576P)) [%] | % binding compared to no inhibitor control (ERK2) [%] | further results
1 | COc1ccc(-c2cc3nccn3c(Nc3ncccc3C(N)=O)n2)cc1OC.Cl.Cl [BAY61-3606, 2-[7-(3,4-dimethoxyphenyl)-imidazo [1,2-c]pyrimidin-5-ylamino] nicotinamide dihydrochloride, reference compound] | 92 | 100 | 87 | 47 | 82 | 56 | 27 | 86 | 72 | 100 | 87 | 63 | 86 | 81 | 9.3 | 85 | 79 | 100 | 0.4 | 68 | % inhibition ATP binding (NEK1; NEK1, KINOMEscan, 1 μM): 73%; % binding compared to no inhibitor control (JNK1): 18%; % binding compared to no inhibitor control (ABL2): 95%; % binding compared to no inhibitor control (ZAP70): 9%
2 | COc1ccccc1Nc1nc(-c2ccc(OC)c(OC)c2)cc2nccn12 [BAY derivative 6] | 100 | 99 | 100 | 100 | 98 | 100 | 91 | 100 | 100 | 100 | 100 | 65 | 100 | 82 | 87 | 58 | 93 | 86 | 38 | 70 | % binding compared to no inhibitor control (JNK1): 95%; % binding compared to no inhibitor control (ABL2): 93%; % binding compared to no inhibitor control (ZAP70): 100%
